Common to all, as to assay: NCI-60 cell line screen, 48 h
The test system of test [1] is SN12C.
For test [2], the system named is NCI/ADR-RES.
The subject of test [3] is T47D.
The test system of test [4] is IGROV-1.
The test system of test [5] is Malme-3M.
Test [6] concerns UO-31.
Test [7] relates to NCI-H522.
The test system of test [8] is MDA-MB-231.
The test system of test [9] is OVCAR-4.
The subject of test [10] is HT-29.
Test [11] deals with HCC 2998.
Test [12] relates to NCI-H460.
In test [13] the test system is M14.
The subject of test [14] is TK-10.
Test [15] has as its system MDA-MB-435.
Test [16] relates to OVCAR-8.
In test [17] the test system is SF-268.
Test [18] concerns 786-0.
Test [19] has as its system SK-MEL-2.
For test [20], the system named is U-251.

From ChEMBL document CHEMBL1201862, “PubChem BioAssay data set” (2004) come the findings set out here.

The structures appear in SMILES notation. Counter-ions that a name gives are not always drawn.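 Protocol summary: plate cells (96-well), add compound at 5 concentrations, incubate 48 h, interpolate endpoints linearly. GI50: concentration for 50% inhibition of growth.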 Active and inactive are the calls of the source. No stated cut-off is given here; in the data, active = GI50 up to about 1.1 µM and inactive = higher.

Turning to `O=C1N=C2SC=C(NC(=S)Nc3ccccc3)N2NC12c1ccccc1-c1ccccc12`, the GI50 was > 10 µM (inactive) in [1]; > 10 µM (inactive) in test [2]; 5.7 µM (inactive) in [3]; > 10 µM (inactive) in test [4]; > 10 µM (inactive) in test [5]; 8.67 µM (inactive) in test [6]. Moreover, the GI50 in test [7], in test [8], in test [9], in [10], in [11] and in test [12] was > 10 µM (inactive) in each case. Further, the GI50 in test [13], in test [14], in test [15], in test [16], in test [17] and in test [18] was > 10 µM (inactive) throughout.
For `CCOc1cc(NC(C)=O)ccc1C(=O)NN1C(=O)CSC1c1ccccc1` (stereo unspecified), the GI50 in test [1] is > 100 µM (inactive); in test [2], 35.7 µM (inactive); in test [3] it was 25.7 µM (inactive); in test [4], > 100 µM (inactive); in [5], 86.3 µM (inactive); in test [6], 40.7 µM (inactive). The GI50 was 43.2 µM (inactive) in [7]; > 100 µM (inactive) in test [8]; > 100 µM (inactive) in test [19]; 84.1 µM (inactive) in [9]; > 100 µM (inactive) in [10]; > 100 µM (inactive) in test [11]. The GI50 in [12] is > 100 µM (inactive); in [13], > 100 µM (inactive); in test [14] it was 48.8 µM (inactive); in test [15], > 100 µM (inactive); in test [16], 48 µM (inactive); in [17], > 100 µM (inactive). The GI50 in test [18] is > 100 µM (inactive).
`COc1ccc(OC)c2cc(Cc3ccc(N(C)C)cc3)c(=O)c(Cc3ccc(N(C)C)cc3)cc12`: the GI50 in test [1] was > 100 µM (inactive); in test [2] it was 30.2 µM (inactive); in test [3], 76.9 µM (inactive); in test [4], 45.7 µM (inactive); in test [5], > 100 µM (inactive); in test [6], > 100 µM (inactive). Further, the GI50 in test [7] is 20.7 µM (inactive); in test [8] it was 74.5 µM (inactive); in [20], 53.2 µM (inactive); in test [9], > 100 µM (inactive); in [10], > 100 µM (inactive); in test [11], > 100 µM (inactive). Also, the GI50 in test [12] is 55.6 µM (inactive); in test [13] it was > 100 µM (inactive); in test [15] it was > 100 µM (inactive); in [16], 32.9 µM (inactive); in test [17], 46.7 µM (inactive); in [18], 90.8 µM (inactive).
In the case of `NCCCNCCCCNCCCN` [SPERMINE TETRAHYDROCHLORIDE], the GI50 in test [1] was 4.41 µM (inactive); in test [2], 44.6 µM (inactive); in test [3], 2.36 µM (inactive); in test [4], 13.2 µM (inactive); in [5] it was 93.1 µM (inactive); in test [6], 2.23 µM (inactive). Also, the GI50 in [7] is 0.374 µM (active); in test [8] it was > 43.6 µM (inactive); in [20] it was > 42 µM (inactive); in [19], > 100 µM (inactive); in [10], 15.6 µM (inactive); in test [11], > 48.5 µM (inactive). For the same compound, the GI50 in [12] is > 100 µM (inactive); in test [13], 9.66 µM (inactive); in test [14], 6.62 µM (inactive); in test [15] it was > 41.2 µM (inactive); in test [16], 34.3 µM (inactive); in test [17] it was > 42.7 µM (inactive). Further, the GI50 in [18] is 1.46 µM (inactive).
Turning to `NCC(O)CSCc1ccc(Cl)cc1` (stereo unspecified), the GI50 in test [1], in [2], in test [3], in test [4], in test [5] and in test [6] was > 100 µM (inactive) throughout. Further, the GI50 in test [7], in [8], in [20], in [9], in [10] and in [11] was > 100 µM (inactive) throughout. The GI50 in test [12], in test [13], in test [14], in [15], in [16] and in [17] was > 100 µM (inactive) throughout. In addition, the GI50 in test [18] is > 100 µM (inactive).
Regarding `CCC1C(=O)C(O)[C@H]2[C@@H]3C(O)CC4=CC(=O)CC[C@]4(C)[C@H]3CC[C@]12C` (stereo partly specified), the GI50 in test [1], in test [2], in test [3], in test [4], in test [5] and in [6] was > 50 µM (inactive) in each case. For the same compound, the GI50 in test [7], in test [8], in test [20], in test [19], in [10] and in test [11] was > 50 µM (inactive) throughout. Besides, the GI50 in test [12], in test [13], in test [14], in test [15], in test [16] and in test [17] was > 50 µM (inactive) in each case. Also, the GI50 in test [18] is > 50 µM (inactive).
For the compound `Cn1c(=O)[nH]c2sc3c(c2c1=N)CCCC3`, the GI50 in test [1], in test [2], in [3], in test [4], in [5] and in [6] was > 75 µM (inactive) throughout. Besides, the GI50 in test [7] was > 75 µM (inactive); in test [8], > 75 µM (inactive); in test [20], > 75 µM (inactive); in test [19], 0.199 µM (active); in test [9], > 75 µM (inactive); in test [10] it was > 75 µM (inactive). In addition, the GI50 was 58.9 µM (inactive) in test [11]; > 75 µM (inactive) in [12]; > 75 µM (inactive) in [14]; > 75 µM (inactive) in [15]; > 75 µM (inactive) in [16]; > 75 µM (inactive) in test [17]. Besides, in [18], the GI50 is > 75 µM (inactive).
Turning to `CC1=C([S+]([O-])c2ccc(C)cc2)CCC2(CCCCO2)O1` (stereo unspecified), the GI50 in test [1], in test [2], in test [3], in test [4], in test [5] and in test [6] was > 100 µM (inactive) throughout. Besides, the GI50 in test [7] was > 100 µM (inactive); in test [8], > 100 µM (inactive); in [20], > 100 µM (inactive); in test [19], 64.3 µM (inactive); in test [9] it was > 100 µM (inactive); in test [10], > 100 µM (inactive). Also, the GI50 in test [11], in [12], in test [14], in test [15], in [16] and in test [17] was > 100 µM (inactive) each time. The GI50 in test [18] is > 100 µM (inactive).
Regarding `N#CCC(=O)c1cc(OCc2cc(OCc3ccc(Br)cc3)cc(OCc3ccc(Br)cc3)c2)cc(OCc2cc(OCc3ccc(Br)cc3)cc(OCc3ccc(Br)cc3)c2)c1`, the GI50 in test [1], in test [2], in test [3], in test [5], in test [6] and in [7] was > 100 µM (inactive) each time. Further, the GI50 in test [8], in test [20], in test [19], in test [9], in test [11] and in [12] was > 100 µM (inactive) each time. The GI50 in [13], in [14], in test [15], in test [17] and in test [18] was > 100 µM (inactive) each time.
Regarding `CCOC(=O)C#Cc1ccc([N+](=O)[O-])cc1`, the GI50 in test [1] is 1.69 µM (inactive); in test [2], 4.18 µM (inactive); in test [3], 2.01 µM (inactive); in test [4] it was 1.96 µM (inactive); in test [6], 1.77 µM (inactive); in test [7] it was 1.49 µM (inactive). Besides, the GI50 in test [8] is 2.28 µM (inactive); in test [20], 1.64 µM (inactive); in test [19] it was 3.24 µM (inactive); in test [9] it was 11.2 µM (inactive); in test [10], 1.53 µM (inactive); in [11], 14.8 µM (inactive). Further, the GI50 in test [12] was 12.4 µM (inactive); in test [13] it was 2.15 µM (inactive); in [14], 14.3 µM (inactive); in [15], 3.44 µM (inactive); in [16], 2.37 µM (inactive); in test [17] it was 2.52 µM (inactive). The GI50 in test [18] is 1.55 µM (inactive).
